Each block holds one molecule with its values, some of them ahead of it.
How the values were obtained:
thyroid [1] = test: Thyroid weight of rats after subchronic oral administration (Sherer et al., cited); type: in vivo, male rats; conditions: compared with molecular iodine
Protocol: The only scientific studies on the relative oral toxicity of molecular iodine and iodide was performed during the early 1990s (Karla Thrall, Ph.D. Thesis, "Formation of Organic By-Products Following Consumption of Iodine Disinfected Drinking Water", Summary and Conclusion Section, Oregon State University, Department of Chemistry, 1992). The weight of a mammals thyroid is one key diagnostic measure used to evaluate the toxicity of an iodine composition. […] Another way to state this is that it required ten time more molecular iodine than iodide to effect animal thyroid function with an orally administered iodine composition.

mammary tissue [2] = test: Histologic grading of mammary tissue in iodine deficient rats, 2 week study (Example 8); type: in vivo, Female Sprague-Dawley rats
Protocol: Perchlorate-treated (400 mg/dL NaClO4) municipal tap water was provided ad libitum for the first five days of captivity. […] Each day for the five days preceding the initiation of testing, animals received estrogen (25 ug of 17-βestradiol) suspended in 100 ul of sesame oil injected IM. During the 2 week experiment estrogen (2.5 ug 17-βestradiol) suspended in 100 ul of sesame oil was injected daily. Vaginal smears were taken every other day to insure that rats achieved constant estrus throughout the experiment.
(§1) Rats were dosed with molecular iodine once daily. Food was removed from the rats each morning and ten hours later, each rat was dosed with 80 ug/kg of molecular iodine. An equivalent dose of iodide (80 ug/kg) was given to a control group of rats. The negative control consisted of rats which were dosed with tap water. Rats were weighed daily. At the end of the 2 week study rats were sacrificed and microscopic sections of the mammary gland tissues were stained with hematoxylin and eosin prior to being read by a pathologist.
Each group contained 10 animals.
The mammary tissue was graded for lobular hyperplasia, secretions, periductal fibrosis, and fibroadenomatous changes. The scoring system for lobular hyperplasia, secretions, periductal fibrosis graded as positive only those animals showing moderate to severe conditions. […] The results of this histological grading are shown below in tabular form.

mammary tissue [3] = test: Histologic grading of mammary tissue in iodine deficient rats, 4 weeks (Example 12); type: in vivo, Female Sprague-Dawley rats; conditions: for Fibroadenomata / Lobular hyperplasia / Periductal fibrosis / Secretion: 4 weeks
Protocol: as §1, with “one of three concentrations 0.0010, 0.010 or 0.10 mg/kg” for “80 ug/kg”, “A” for “An equivalent”, “(100” for “(80”, “water.” for “water. Rats were weighed daily.”, “4 weeks” for “the 2 week study”
Six groups of animals were examined: groups 1-3 received daily doses of one of three concentrations of molecular iodine; (4) received the normal diet without perchlorate treatment; (5) received the iodine deficient diet with a water gavage; and (6) received an iodine deficient diet and were dosed with iodide (100 ug/kg). […] The results of this histological grading are shown below in tabular form.

human = human oral consumption; cited from earlier work
thyroid [4] = conditions: male rats, cited from earlier work
[5] = Body weight of iodine deficient rats, 2 week study (Example 8); conditions: in g (unit assumed)
dysplastic mastodynia = conditions: women with dysplastic mastodynia; cited from earlier work
mammary glands = conditions: compared with iodide; cited from earlier work
thyroid hormones = conditions: repeated daily doses; no increase below; cited from earlier work
[6] = function of pH; cited from earlier work

concentration affecting thyroid weight relative to molecular iodine (fold less) (thyroid [1]): 10 fold
Compound: I [iodide]
Fibroadenomata (mammary tissue [2]; 80 ug/kg daily gavage, 2 weeks): 4/10
secretion and fibroadenomata (result in words) (mammary tissue [2]; 80 ug/kg daily gavage, 2 weeks): displayed increased secretion and fibroadenomata
Lobular hyperplasia (mammary tissue [2]; po, 0.08 mg/kg, 336 h): 4/10
Periductal fibrosis (mammary tissue [2]; po, 0.08 mg/kg, 336 h): 6/10
Secretion (mammary tissue [2]; po, 0.08 mg/kg, 336 h): 4/10
Fibroadenomata (mammary tissue [3]; 100 ug/kg daily): 3/10
Lobular hyperplasia (mammary tissue [3]; 100 ug/kg daily): 4/10
Periductal fibrosis (mammary tissue [3]; 100 ug/kg daily): 5/10
Secretion (mammary tissue [3]; 100 ug/kg daily): 5/10
formation of fibroadenomata (in words) (mammary tissue [3]; iodide 100 ug/kg daily): did not substantially alleviate the formation of fibroadenomata
range of human consumption above which there is a health risk (human): 0.150 to 1.0 mg/day
increased thyroid weight, dose (thyroid [4]; subchronic oral administration): 10 mg/kg
average body weight at end ([5]; 80 ug/kg daily, end of 2 weeks): 235±7.1
average body weight at start ([5]; 80 ug/kg, start): 214±6.5

Compound: II [iodine]
improvement rate (dysplastic mastodynia): 71%

Compound: II [molecular iodine]
formation of fibroadenomata and periductal fibrosis (in words) (mammary tissue [3]; 1 ug/kg daily): did not substantially alleviate the formation of fibroadenomata and periductal fibrosis
Fibroadenomata (mammary tissue [3]; 1 ug/kg daily): 4/10
Lobular hyperplasia (mammary tissue [3]; 1 ug/kg daily): 4.10
Periductal fibrosis (mammary tissue [3]; 1 ug/kg daily): 6/10
Secretion (mammary tissue [3]; 1 ug/kg daily): 6/10
Fibroadenomata (mammary tissue [3]; 10 ug/kg daily): 1/10
Lobular hyperplasia (mammary tissue [3]; 10 ug/kg daily): 2/10
Periductal fibrosis (mammary tissue [3]; 10 ug/kg daily): 4/10
Secretion (mammary tissue [3]; 10 ug/kg daily): 4/10
Fibroadenomata (mammary tissue [3]; 100 ug/kg daily): 1/10
Lobular hyperplasia (mammary tissue [3]; 100 ug/kg daily): 2/10
Periductal fibrosis (mammary tissue [3]; 100 ug/kg daily): 2/10
Secretion (mammary tissue [3]; 100 ug/kg daily): 3/10
formation of fibroadenomata and periductal fibrosis (in words) (mammary tissue [3]; 10 and 100 ug/kg daily): substantially reduced the formation of fibroadenomata and periductal fibrosis
diminishing ductal hyperplasia and perilobular fibrosis in the mammary glands (mammary glands): distinctly more effective in diminishing ductal hyperplasia and perilobular fibrosis in the mammary glands than iodide
did not effect thyroid weight even at concentrations of (thyroid [4]; no effect up to this dose, oral): 100 mg/kg
dose at which an increase in steady state levels of thyroid hormones was measured (thyroid hormones): 10 mg per kilogram of body weight
stability in water [6]: unstable in water

Reference: patent publication US5885592A, “Methods and pharmaceutical compositions for oral delivery of molecular iodine” (priority 1997, dated 1999)
